In US20040192652A1, “Pharmaceutical combinations and methods for the treatment of leukemia” (priority 2002, published 2004):
Counter-ions that a name gives are not always drawn.

Tests used:
[1] = system: KBM-5R chronic myeloid leukemia cells (STI-571 resistant); assay: In vivo antitumor activity (survival) in mice bearing KBM-5R cells; settings: for ILS % / Median survival time / Rang survival time / T/C %: qd × 5; for LTS (long term survivors): qd × 5, sacrificed Day 95
Method: (§1) Three to five week-old ICR SCID female mice weighting 20-25 g were obtained from Taconic farms. They were acclimatized for a week prior to the experiment. The animals were maintained on a standard animals feed and drinking water ad libitum. Mice were housed in an air-conditioned room at the temperature of 22±1° C. and 50-70% humidity with a 12/12 h-light/dark cycle throughout the experiment.
(§2) Mice were irradiated (1×250 centigray; cGy) and injected i.p. with 2×10^7 or 2,4×10^7 KBM-5 or KBM-5R tumor cells, respectively. […] In primary experiments (with KBM-5 cells) or secondary experiments (with KBM-5R cells), tumor-bearing animals were randomised (8-10 per group and treated by Troxatyl™ i.p. at 5, 10, 20, or 25 mg/kg once a day for 5 consecutive days (days 20-24). Control (untreated) mice received saline. In third experiments (with KBM-5 cells), tumor bearing animals (6 per group) were treated by one of the following schemes:
(§3) Animals in complete remission, free of detectable tumor (negative for human DQα-gen) were considered cured.
(§4) LTS were electively sacrificed on Day 95 in single agent experiments or on Day 100 in combination treatment experiment.

[2] = system: KBM-5 chronic myeloid leukemia cells; assay: In vivo antitumor activity (survival) in mice bearing KBM-5 cells
Method: as §1, §2, §3, §4

[3] = system: KBM5-STI^R1.0 cells
Method: (§5) In vitro growth inhibition effect of adaphostin on leukemic cells was determined by measuring MTS (CellTiter 96®Aqueous One Solution Reagent, Promega Corporation, WI) dye absorbance by living cells. Briefly, cells were seeded in triplicate in 96-well microtiter plates (Falcon, USA) at a concentration of 4×10^5 cells/ml. After exposure to the drug(s) for 72 h, 20 μl of MTS solution were added to each well, the plates were incubated for additional 4 h at 37° C., and absorbance at 490 nm was measured.

[4] = system: KBM7-STI^R1.0 cells
Method: as §5

[5] = system: KBM-7 cells; settings: KBM7 cells
Method: (§6) Two human CML, Ph+, p210 Bcr-Abl expressing cell lines were used, namely, KBM-5 and KBM-7. KBM-5 represents cells derived from a patient in the blastic phase of CML and is remarkable for the absence of normal c-ABL. KBM-7 has been identified to be a human near-haploid cell line.
(§7) The cells were cultured in Iscove's modified Dulbecco's medium supplemented with 10% fetal calf serum (Invitrogen Corp., Carlsbad, Calif.) at 37° C. in atmosphere of 5% CO2 in air.
(§8) Briefly, cells were seeded in triplicate in 96-well microtiter plates (Falcon, USA) at a concentration of 4×10^5 cells/ml. After exposure to the drug(s) for 72 h, 20 μl of MTS solution were added to each well, the plates were incubated for additional 4 h at 37° C., and absorbance at 490 nm was measured.

[6] = system: KBM-5 cells; settings: KBM5 cells
Method: as §6, §7, §8

[7] = KBM-5, primary experiment, 5 mg/kg ip, qd × 5
[8] = KBM-5, primary experiment, 10 mg/kg ip, qd × 5
[9] = KBM-5, primary experiment, 20 mg/kg ip, qd × 5
[10] = KBM-5, primary experiment, 25 mg/kg ip, qd × 5
[11] = KBM-5, third (combination) experiment, 10 mg/kg ip, qd × 5
[12] = KBM-5, third (combination) experiment, 25 mg/kg ip, qd × 5
[13] = KBM-5, third (combination) experiment, 50 mg/kg ip, bid × 10

## Nc1ccn([C@@H]2CO[C@H](CO)O2)c(=O)n1 [Troxatyl ™, (−)-β-L-Dioxolane-Cytidine]
[1]; 5 mg/kg ip
  ILS %: 13.93%
  Median survival time: 37.142 days
  Rang survival time: 36 to 50 days
  T/C %: 113.93%
  LTS (long term survivors): 2
[1]; 10 mg/kg ip
  ILS %: 50.64%
  Median survival time: 49.11 days
  Rang survival time: 36 to 69 days
  T/C %: 150.64%
[1]; 20 mg/kg ip
  ILS %: 56.84%
  Median survival time: 51.13 days
  Rang survival time: 37 to 69 days
  T/C %: 156.84%
[1]; 25 mg/kg ip
  ILS %: 54.66%
  Median survival time: 50.42 days
  Rang survival time: 35 to 69 days
  T/C %: 154.66%
  LTS (long term survivors): 1
[2]; [7]
  ILS %: 57.09%
  Median survival time: 54 days
  Rang survival time: 46 to 66 days
  T/C %: 157.09%
[2]; KBM-5, primary experiment, 5 mg/kg ip, qd × 5, sacrificed Day 95
  LTS (long term survivors): 1
[2]; [8]
  ILS %: 45.45%
  Median survival time: 50 days
  Rang survival time: 44 to 66 days
  T/C %: 145.45%
[2]; [9]
  ILS %: 33.82%
  Median survival time: 46 days
  Rang survival time: 36 to 58 days
  T/C %: 133.82%
[2]; [10]
  ILS %: 68.73%
  Median survival time: 58 days
  Rang survival time: 35 to 74 days
  T/C %: 168.73%
[2]; [11]
  ILS %: 50.90%
  Median survival time: 43.16 days
  Rang survival time: 38 to 50 days
  T/C %: 150.9%
[2]; [12]
  ILS %: 71.33%
  Median survival time: 49 days
  Rang survival time: 40 to 56 days
  T/C %: 171.33%

## Cc1ccc(NC(=O)c2ccc(CN3CCN(C)CC3)cc2)cc1Nc1nccc(-c2cccnc2)n1 [STI-571, imatinib mesylate]
[3]
  STI-571 concentration up to which cells still proliferated: up to 10 μM
[4]
  STI-571 concentration at which proliferation was almost completely abolished: 7.5 µM
[5]
  response to STI-571 exposure: apoptosis
[6]
  response to STI-571 exposure: G0/G1 cell cycle arrest
[2]; [13]
  ILS %: 8.95%
  Median survival time: 31.16 days
  Rang survival time: 26 to 40 days
